Test results: article PMC12087296 (Microbial Biotechnology, 2025)
Like-named read-outs stand apart in the source and are kept apart here.

Legend:
TlpQ [1] = target: T1, TlpQ (Pseudomonas aeruginosa, UniProt Q9I0I4); assay: isothermal titration calorimetry, […]°C; format: binding
TlpQ [2] = target: T1, TlpQ; assay: isothermal titration calorimetry, […]°C; format: binding; remark: listed apart in the source

T1 sequence (Q9I0I4 33-363 limits assumed): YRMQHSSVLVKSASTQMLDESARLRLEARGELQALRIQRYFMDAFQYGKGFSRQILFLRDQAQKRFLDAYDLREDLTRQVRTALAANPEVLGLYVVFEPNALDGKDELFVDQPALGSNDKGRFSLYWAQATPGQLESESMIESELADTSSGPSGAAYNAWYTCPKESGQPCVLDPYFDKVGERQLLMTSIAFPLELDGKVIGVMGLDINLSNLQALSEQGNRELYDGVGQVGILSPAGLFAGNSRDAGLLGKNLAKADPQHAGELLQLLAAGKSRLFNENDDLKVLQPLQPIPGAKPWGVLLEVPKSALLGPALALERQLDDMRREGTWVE

SMILES	Kd (TlpQ [1])	Kd (TlpQ [2])
NCCc1ccc(O)c(O)c1 [dopamine]	137 µM	–
CNC[C@H](O)c1ccc(O)c(O)c1 [epinephrine]	–	363 µM
